# Calls of active or inactive are those of the source. The rule behind the calls is not given here.
# Experiments:
# Staphylococcus aureus = assay: Antibacterial activity against Staphylococcus aureus up to 200 ug/ml by microdilution assay; format: functional, organism-based
# Escherichia coli = assay: Antibacterial activity against Escherichia coli up to 200 ug/ml by microdilution assay; format: functional, organism-based
# [1] = target: Acetylcholinesterase (Homo sapiens) (UniProt P22303); assay: Inhibition of human AChE up to 200 ug/ml by Ellman's assay
# A549 [2] = assay: Cytotoxicity against human A549 cells up to 200 ug/ml by SRB method; format: functional, cell-based
# K562 [3] = assay: Cytotoxicity against human K562 cells up to 200 ug/ml by MTT assay; format: functional, cell-based
# K562 [4] = assay: cells; conditions: Homo sapiens
# Description: Cytotoxicity against human K562 cells by MTT assay
# A549 [5] = assay: cells; conditions: Homo sapiens
# Description: Cytotoxicity against human A549 cells by SRB method
# Sequence of Acetylcholinesterase (Homo sapiens) (P22303 whole entry): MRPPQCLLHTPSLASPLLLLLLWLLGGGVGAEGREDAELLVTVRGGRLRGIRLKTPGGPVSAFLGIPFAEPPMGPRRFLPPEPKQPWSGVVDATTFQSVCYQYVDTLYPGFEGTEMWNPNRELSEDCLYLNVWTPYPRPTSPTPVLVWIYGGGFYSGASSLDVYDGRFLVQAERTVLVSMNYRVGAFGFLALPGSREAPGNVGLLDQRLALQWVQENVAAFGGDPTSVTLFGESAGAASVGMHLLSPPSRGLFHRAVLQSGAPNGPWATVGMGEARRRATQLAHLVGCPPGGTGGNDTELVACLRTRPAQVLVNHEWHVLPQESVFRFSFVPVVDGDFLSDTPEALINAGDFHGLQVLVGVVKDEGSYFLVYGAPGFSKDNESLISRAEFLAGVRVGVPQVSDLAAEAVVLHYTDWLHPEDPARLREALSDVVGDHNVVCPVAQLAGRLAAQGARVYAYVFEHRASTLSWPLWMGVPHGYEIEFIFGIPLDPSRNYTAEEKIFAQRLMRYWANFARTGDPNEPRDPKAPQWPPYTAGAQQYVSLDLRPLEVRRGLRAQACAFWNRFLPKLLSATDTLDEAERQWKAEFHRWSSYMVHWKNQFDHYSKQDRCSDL
Structure (SMILES),Activity (Staphylococcus aureus),Activity (Escherichia coli),Activity [1],Activity (A549 [2]),Activity (K562 [3]),IC50 (K562 [4]) [µM],IC50 (A549 [5]) [µM]
C/C(=C\C[C@@]1(c2ccccc2N(C)C)CCN(C)C1=O)C(=O)O,inactive,inactive,inactive,inactive,inactive,–,–
C/C(=C\C[C@@]12CCN(C)[C@@H]1[N+](C)(C)c1ccccc12)C(=O)[O-],inactive,inactive,inactive,inactive,inactive,–,–
COc1cccc2c1C(=O)c1c(O)c3c(c(O)c1C2=O)C[C@@](O)(C(=O)CO)C[C@@H]3O[C@H]1C[C@H](N)[C@H](O)[C@H](C)O1 [DOXORUBICIN],–,–,–,–,–,0.32,–
C/C(=C\C[C@@]12CCN(C)[C@@H]1[N+](C)(C)c1ccccc12)C(=O)N[C@@H](Cc1ccccc1)C(=O)[O-],inactive,inactive,inactive,inactive,inactive,–,–
O=c1[nH]cc(F)c(=O)[nH]1 [FLUOROURACIL],–,–,–,–,–,–,20.8

# From ChEMBL document CHEMBL1153022, “Pyrrolidinoindoline alkaloids from Selaginella moellendorfii” (J Nat Prod, 2009)
